In publication PMC9921161, “Antihyaluronidase and Antioxidant Potential of Atriplex sagittata Borkh. in Relation to Phenolic Compounds and Triterpene Saponins” (Molecules, 2023) one finds IC50 hyaluronidase inhibition and inhibition data, which are given here for two compounds.

The assay concerns the target Hyaluronidase from bovine testes type I-S (Bos taurus, UniProt Q2YDK3). In words: Antihyaluronidase activity, spectrophotometric (turbidimetric CTAB) method. The format is biochemical. Conditions: for IC50 hyaluronidase inhibition: pH 4.5, 37 °C. Here is the method: Antihyaluronidase activity was determined using a spectrophotometric method described previously. Briefly, extracts after evaporation of methanol were dissolved in DMSO (at concentrations of 0.01–1 mg/mL) and were pre-incubated (10 min, 37 °C) in the presence of the hyaluronidase enzyme (25 µL Hyal, 30 U/mL) and incubation buffer (25 µL, acetate buffer, pH 4.5, […], 0.5 mg/mL albumin). The same procedure was applied to isolated compounds (at concentrations 0.005–1 mg/mL). Next, a solution of hyaluronic acid (25 µL HA, 0.3 mg/mL) was added to the reaction mixtures and the samples were incubated (45 min, 37 °C). After incubation, CTAB (200 µL of 2.5%) solution was added to the reaction mixtures. The inhibitory effect of the tested extracts and saponins on the enzyme activity was determined on the basis of the measurement of the absorbance of the precipitated nonhydrolyzed hyaluronic acid. The study was carried out using a multipurpose plate reader (Synergy HT BioTek, Winooski, VT, USA) at a wavelength of 600 nm. Antihyaluronidase activity was expressed as % enzyme inhibition, as previously described. Quercetin and escin were used as positive controls in the range of concentrations (10–1000 µg/mL corresponding to the analyzed substances (see Table 4).

The mark [1] stands for this setting: read-out: Hyaluronidase Inhibition [%].

Chain of Hyaluronidase from bovine testes type I-S (Q2YDK3 entry or part of it): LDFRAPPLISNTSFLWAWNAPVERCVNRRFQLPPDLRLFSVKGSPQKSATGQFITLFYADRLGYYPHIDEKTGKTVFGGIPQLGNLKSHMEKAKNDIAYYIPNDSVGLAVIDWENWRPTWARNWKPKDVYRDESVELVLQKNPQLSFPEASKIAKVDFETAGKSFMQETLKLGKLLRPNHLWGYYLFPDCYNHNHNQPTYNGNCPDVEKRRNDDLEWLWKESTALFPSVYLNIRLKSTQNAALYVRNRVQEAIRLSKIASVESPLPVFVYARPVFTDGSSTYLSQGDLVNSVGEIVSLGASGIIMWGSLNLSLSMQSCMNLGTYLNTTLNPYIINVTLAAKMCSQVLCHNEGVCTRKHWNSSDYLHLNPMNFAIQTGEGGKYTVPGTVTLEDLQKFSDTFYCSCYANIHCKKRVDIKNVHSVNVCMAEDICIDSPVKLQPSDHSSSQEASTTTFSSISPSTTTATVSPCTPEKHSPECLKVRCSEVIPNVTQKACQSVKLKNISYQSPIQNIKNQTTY

The term inhibition denotes the change of the read-out against control, counted positive when it falls. As for `O=c1c(O)c(-c2ccc(O)c(O)c2)oc2cc(O)cc(O)c12` [quercetin], the IC50 hyaluronidase inhibition worked out at 514.28 µg/mL. Moreover, under setting [1], the inhibition at 10 µg/mL is 0.61 ± 0.53%, the inhibition at 20 µg/mL was found to be 0.62 ± 0.54%, the inhibition at 50 µg/mL was found to be 1.24 ± 0.99% and the inhibition at 100 µg/mL worked out at 4.39 ± 0.88%. Besides, under setting [1], the inhibition at 200 µg/mL is 13.9 ± 2.7%, the inhibition at 300 µg/mL was 21.9 ± 4.04%, the inhibition at 500 µg/mL was determined as 38.8 ± 1.33% and the inhibition at 700 µg/mL is 80.56 ± 0.49%. The inhibition at 1000 µg/mL under setting [1] was 91.1 ± 1.5%.

As for escin, the IC50 hyaluronidase inhibition amounted to 307.38 µg/mL.
